Results: patent US20040043937A1, “Peptide and peptide mimetic derivatives with integrin-inhibitors properties II” (priority 2000, published 2004)
Where no end group is shown, it is not given here.

System: mouse MC3T3 H1 osteoblast cultures
Assay: Cell adhesion test: adhesion of osteoblast cultures in vitro to peptide-coated material surfaces
Type: cell-based
Details: 50 000 cells/cm^2 inoculated, incubation in serum-free medium at 37° C./95% atmospheric humidity for one hour
Experimental: Example for Cell Adhesion Test The adhesion of mouse MC3T3 H1 osteoblast cultures in vitro to peptide-coated material surfaces was investigated. In this test, 50 000 cells/cm^2 were inoculated and, after incubation in serum-free medium at 37° C./95% atmospheric humidity for one hour, the proportion of adhered cells was determined. Cell adhesion rate [%]=adhered cells/inoculated cells×100 The coating of culture surfaces made of polystyrene precoated with bovine serum albumin (BSA) with thiol peptides is disclosed in the prior art (see DE 198 18098 (Merck Patent GmbH), Ex. 2). The coating of PMMA surfaces with acrylate peptides is also described in DE 198 18098, Ex. 3.

Row | Substance | cell adhesion rate [%] (adhered cells/inoculated cells×100)
1 | Cys-Aca-Aca-Thr-Trp-Tyr-Lys-Ile-Ala ({Cys-Aca-Aca}-TWYKIA) [linear peptide with thiol (Cys) anchor] | 7
2 | Cys-Aca-Aca-Thr-Trp-Tyr-Lys-Ile-Ala-Phe-Gln-Arg ({Cys-Aca-Aca}-TWYKIAFQR) [linear peptide with thiol (Cys) anchor] | 17
3 | Cys-Aca-Aca-Thr-Trp-Tyr-Lys-Ile-Ala-Phe-Gln-Arg-Asn-Arg-Lys ({Cys-Aca-Aca}-TWYKIAFQRNRK) [linear peptide with thiol (Cys) anchor] | 101
4 | Gua-Mab-azaGly-Asp-Hda-εAhx-εAhx-Aca | 75
5 | Lys-Ile-Ala-Phe-Gln-Arg-Asn-Arg-Lys-Aca-Aca-Cys (KIAFQRNRK-{Aca-Aca-Cys}) [linear peptide with thiol (Cys) anchor] | 96
6 | Phe-Gln-Arg-Asn-Arg-Lys-Aca-Aca-Cys (FQRNRK-{Aca-Aca-Cys}) [linear peptide with thiol (Cys) anchor] | 13
7 | Thr-Trp-Tyr-Lys-Ile-Ala-Phe-Gln-Arg-Asn-Arg-Lys-Aca-Aca-Cys (TWYKIAFQRNRK-{Aca-Aca-Cys}) [linear peptide with thiol (Cys) anchor] | 105
